{"source": "patent US20030022878A1", "about": "“TELOMERASE INHIBITOR” (priority 1997, published 2003)", "key": {"[1]": {"biological_target": "T1, telomerase (Homo sapiens, UniProt O14746)", "T1 construct": "the resulting extract was centrifuged to obtain the supernatant as a cell extract for activity measurement; endogenous in cells", "T1 sequence (O14746 whole entry)": "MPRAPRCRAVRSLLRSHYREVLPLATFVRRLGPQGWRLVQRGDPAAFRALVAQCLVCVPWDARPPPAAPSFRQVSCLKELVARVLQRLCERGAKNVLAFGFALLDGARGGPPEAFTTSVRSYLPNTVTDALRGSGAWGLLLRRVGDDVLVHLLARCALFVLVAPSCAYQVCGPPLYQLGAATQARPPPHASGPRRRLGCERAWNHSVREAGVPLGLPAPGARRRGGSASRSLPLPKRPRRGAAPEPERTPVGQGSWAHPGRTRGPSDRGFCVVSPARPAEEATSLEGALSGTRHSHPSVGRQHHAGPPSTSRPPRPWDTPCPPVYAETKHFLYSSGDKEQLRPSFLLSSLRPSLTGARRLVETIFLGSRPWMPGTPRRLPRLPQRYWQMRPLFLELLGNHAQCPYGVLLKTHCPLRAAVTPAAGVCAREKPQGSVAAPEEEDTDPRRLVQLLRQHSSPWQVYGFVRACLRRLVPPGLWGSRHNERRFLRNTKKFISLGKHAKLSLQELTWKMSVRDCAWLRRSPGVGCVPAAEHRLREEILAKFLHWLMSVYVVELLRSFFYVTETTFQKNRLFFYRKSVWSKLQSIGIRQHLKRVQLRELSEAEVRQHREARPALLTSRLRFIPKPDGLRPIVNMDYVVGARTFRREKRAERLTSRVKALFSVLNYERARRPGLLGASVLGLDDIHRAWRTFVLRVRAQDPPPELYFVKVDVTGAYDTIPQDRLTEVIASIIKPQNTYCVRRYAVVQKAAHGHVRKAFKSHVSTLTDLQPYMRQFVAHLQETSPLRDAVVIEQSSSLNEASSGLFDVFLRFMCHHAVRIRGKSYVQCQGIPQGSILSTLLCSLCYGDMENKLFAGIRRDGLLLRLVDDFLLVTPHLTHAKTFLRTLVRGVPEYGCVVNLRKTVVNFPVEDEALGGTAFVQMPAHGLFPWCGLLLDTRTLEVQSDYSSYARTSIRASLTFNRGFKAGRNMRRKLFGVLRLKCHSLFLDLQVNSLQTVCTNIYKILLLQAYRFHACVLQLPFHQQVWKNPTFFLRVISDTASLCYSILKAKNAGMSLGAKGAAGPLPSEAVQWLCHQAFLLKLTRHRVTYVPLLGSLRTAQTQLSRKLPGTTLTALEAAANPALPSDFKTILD", "assay": "Telomerase inhibiting activity in cell-free system (TRAP method)", "type": "biochemical", "method": "Telomerase inhibiting activity of EGCG, EGC, ECG, and EC (all products of Sigma) was measured according to the Telomeric Repeat Amplification Protocol (TRAP) method described by Kim et al. (Kim, N. W. et al., Science, 266, 2011-2015, 1994) as follows:\nCells were washed with ice-cold PBS (phosphate buffered saline) and suspended again in PBS to count the cells. After centrifuging this cell suspension, the resulting cell mass was suspended in a TRAP assay buffer (10 mM Tris-HCl, pH 7.5, 1 mM MgCl2, 1 mM EDTA, 0.5% CHAPS, 10% glycerine, 5 mM 2-mercaptoethanol, and 0.1 mM 4-(2-aminoethyl)-benzenesulfonyl fluoride hydrochlorine), then the suspension was quick-frozen with liquid nitrogen. After melting, the suspension was allowed to stand in an ice bath for 30 minutes for extraction, then the resulting extract was centrifuged to obtain the supernatant as a cell extract for activity measurement. […]\nThe PCR products obtained in the abovementioned procedure were resolved by polyacrylamide gel electrophoresis and the resulting DNA bands stained with SYBR Green (Takara Shuzo) were detected by irradiation with a UV transilluminator.\nThe detected bands were photographed. The intensity of each band was quantitatively analyzed using the NIH Image 1.60 software program. Telomerase activity was expressed as the intensity of a sample band relative to that of the band corresponding to the ITAS fragment (control).\nTelomerase activity in reaction solutions of 8 different EGCG concentrations ranging from 0.1 to 20 μM was measured in the same manner as described in Example 1 except that a primer, PS, was used at two different concentrations. […]\nTelomerase activity in reaction solutions containing powder sample 1 obtained in Production Example 1, powder sample 2 (a tea catechin extract: THEA-FLAN 90S, a trade name, a product of ITO EN, Ltd), and EGCG at different concentrations in the following ranges was measured in the same manner as described in Example 1. […]"}, "[2]": {"tested_on": "malignant melanoma cells", "conditions": "oral administration; cited from earlier work"}, "[3]": {"tested_on": "HT29 cells", "assay": "TRF (telomere) length by Southern blotting", "type": "cell-based", "conditions": "HT29 cells in crisis, 15 μM EGCG", "method": "HT 29 cells from PD57 to PD60 in cell crisis were pooled and the genomic DNA was prepared by a salting-out/ethanol precipitation method (Stratagene). Further, integrity of the isolated genomic DNA was confirmed by gel electrophoresis (ethidium bromide staining).\nThe isolated genomic DNA (10 μg) was digested with HinfI and RsaI and the resulting digests were subjected to Southern blotting by the ordinary method, after which DNA fragments were detected using a TeloQuant assay kit (PharmMingen).\nAccordingly, if a genomic DNA is digested with the abovementioned restriction enzymes, only the telomere region would remain undigested. This DNA fragment is called the Terminal Restriction Fragment (TRF) which can be detected by Southern blotting to analyze telomere lengths. TRFs of EGCG-treated or untreated HT29 cells obtained as mentioned above were detected using a TeloQuant assay kit. […] It was observed that TRFs in the cells which entered crisis due to the EGCG treatment (●) were shortened by about 1.1 kb as compared to those in the untreated cells (◯). Further, it was confirmed that successive EGCG treatment of HT29 cells caused telomere diminishment."}, "[4]": {"tested_on": "experimentally-induced tumors", "conditions": "nude mice with experimentally-induced tumors; cited from earlier work"}, "[5]": {"biological_target": "T2, intracellular telomerase activity, monoblastoid leukemia U937 cells (Homo sapiens, UniProt O14746)", "T2 construct": "endogenous in cells; host or cells: U937", "T2 sequence (O14746 whole entry)": "as above", "assay": "Telomerase inhibiting activity in cells (Streptolysin O permeabilization, TRAP)", "type": "cell-based", "conditions": "15 μM EGCG for 2 hours", "method": "(§1) The telomerase inhibiting activity of EGCG was assayed in monoblastoid leukemia U937 cells (American Type Culture Collection, ATCC) and colon adenocarcinoma HT29 cells.\n(§2) An RPMI1640 medium (Nissui) supplemented with 10% fetal bovine serum (FBS) was used for U937 cells, and an RPMI1640 medium supplemented with 5% FBS and 5% fetal calf serum (FCS) was used for HT29 cells.\n(§3) The cells were incubated in a 15 μM EGCG solution for 2 hours and washed in PBS. The washed cells were suspended in an RPMI1640 medium (without serum) at a concentration of 2×10^6 cells/ml, then Streptolysin O (Sigma, 5 U/ml), TS primer (10 μM), spermidine (1 mM), and Imipramine (50 μM) were added, and the admixture was incubated at room temperature for 10 minutes. Streptolysin O is a substance which increases the permeability of a substance through the cell membrane, and enables the TS primers and other substances to be incorporated into the cell. […]\n(§4) The telomerase products thus obtained were resolved by polyacrylamide gel electrophoresis, after which DNA bands were stained with SYBR Green (Takara Shuzo) and detected by irradiation with a UV transilluminator. The intensity of each band was quantitatively analyzed using the NIH Image 1.60 software program and telomerase activity was expressed as the intensity of a sample band relative to that of the band corresponding to the ITAS fragment (control). […]"}, "[6]": {"biological_target": "T3, intracellular telomerase activity, colon adenocarcinoma HT29 cells (Homo sapiens, UniProt O14746)", "T3 construct": "endogenous in cells; host or cells: HT29", "T3 sequence (O14746 whole entry)": "as above", "assay": "Telomerase inhibiting activity in cells (Streptolysin O permeabilization, TRAP)", "type": "cell-based", "conditions": "15 μM EGCG for 2 hours", "method": "as §1, §2, §3, §4"}, "[7]": {"tested_on": "HT29 cells", "assay": "Effect of EGCG on cell growth in subculture", "type": "cell-based", "conditions": "HT29 subculture lines, medium with 15 μM EGCG", "method": "(§5) U937 cells and HT29 cells were each subcultured on a medium with and without EGCG to study the effect of addition of EGCG on cell growth. The medium used was the same as used in Example 4. Five subculture lines for U937 cells and nine subculture lines for HT29 cells were prepared. The first culture of each line was made by inoculating cells of each stock culture at a density of 5×10^5 cells per 10-cm dish. For each subculture, two lines were cultured on a medium without EGCG (control lines) and the rest of the lines were cultured on a medium supplemented with 15 μM EGCG. Cells were passaged, sampled and counted every four days. The incubation medium was freshly changed every day. […] PD is the number of cycles in which the cell population doubles during cell growth and is calculated by monitoring cell counts using a hemocytometer."}, "[8]": {"tested_on": "U937 cells", "assay": "Effect of EGCG on cell growth in subculture", "type": "cell-based", "conditions": "U937 subculture lines, medium with 15 μM EGCG", "method": "as §5"}, "[9]": {"biological_target": "T4, telomerase, HT29 cells (Homo sapiens, UniProt O14746)", "T4 construct": "endogenous in cells; host or cells: HT29", "T4 sequence (O14746 whole entry)": "as above", "assay": "Telomerase activity in extract of EGCG-treated cells (mechanism)", "type": "cell-based", "conditions": "15 μM EGCG for 2 hours, washed, extracted", "method": "(§6) The cells were treated with 15 μM EGCG for 2 hours and washed with ice-cold PBS. The cell mass obtained by centrifugation was suspended in a TRAP assay buffer and the resulting suspension was quick-frozen with liquid nitrogen. After melting, the suspension was allowed to stand in an ice bath for 30 minutes, then the resulting extract was centrifuged to obtain the supernatant as a cell extract. A test compound, TS primer (50 ng), 50 μM dNTPs, and T4g32 protein (Behringer-Manheim) were added to a specified volume of the cell extract (corresponding to 200 to 1000 cells), and the admixture was incubated at 20° C. for 30 minutes. After reaction, CX primer (100 ng) was added to the reaction solution, then PCR was performed in the presence of Gene Taq DNA polymerase (2 U) and ITAS (10^−18 g), i.e., (94° C., 40 seconds→50° C., 40 seconds→72° C., 60 seconds)×30 cycles→72° C., 2 minutes, to obtain PCR products. The PCR products thus obtained were resolved by polyacrylamide gel electrophoresis and the resulting DNA bands stained with SYBR Green (Takara Shuzo) were detected by irradiation with a UV transilluminator. The intensity of each band was quantitatively analyzed using the NIH Image 1.60 software program. Telomerase activity was expressed as the intensity of a sample band relative to that of the band corresponding to the ITAS fragment. […]"}, "[10]": {"biological_target": "T5, telomerase, U937 cells (Homo sapiens, UniProt O14746)", "T5 construct": "endogenous in cells; host or cells: U937", "T5 sequence (O14746 whole entry)": "as above", "assay": "Telomerase activity in extract of EGCG-treated cells (mechanism)", "type": "cell-based", "conditions": "15 μM EGCG for 2 hours, washed, extracted", "method": "as §6"}}, "note": "pKi: −log10 of the molar value. Values joined by “and” are separate entries in the source; they are usually repeats but may differ in a detail not shown here. Identical values can stand only once."}
{"substance": "(−) epigallocatechin gallate [EGCG]", "values": [{"measurement": "pKi", "setting": "[1]; Dixon plot, EGCG 0.1 to 20 μM, primer at two concentrations", "result": "~7.00"}, {"measurement": "telomerase inhibiting activity compared among catechins (FIG. 1)", "setting": "[1]; TRAP, cell extract", "result": "highest inhibiting activity"}, {"measurement": "Telomerase inhibition, IC50", "setting": "[1]; concentration suppressing DNA amplification of control by 50%, samples tested in μg/ml ranges", "result": 0.25}, {"measurement": "metastasis of malignant melanoma cells", "setting": "[2]", "result": "suppressed"}, {"measurement": "shortening of TRFs compared to untreated cells", "setting": "[3]", "result": "about 1.1 kb"}, {"measurement": "cancer cell growth in nude mice", "setting": "[4]", "result": "effectively suppressed"}, {"measurement": "intracellular telomerase activity", "setting": "[5]", "result": "markedly inhibited"}, {"measurement": "intracellular telomerase activity", "setting": "[6]", "result": "markedly inhibited"}, {"measurement": "day at which cells entered cell crisis", "setting": "[7]", "result": "75 days and 57 days"}, {"measurement": "day at which cells entered cell crisis", "setting": "[8]", "result": "53 days and 44 days and 29 days"}, {"measurement": "telomerase activity tested in vitro in extract after treatment of cells", "setting": "[9]", "result": "no effect"}, {"measurement": "telomerase activity tested in vitro in extract after treatment of cells", "setting": "[10]", "result": "no effect"}]}
